Entries after “also recorded” stand apart in the source; their conditions may differ.
Experiments:
[1] = orally administered radiolabeled, rats; cited from earlier work
[2] = Feeding pig model (absorption as component of diet); type: in vivo
Excerpt: Fifteen pigs, 15-20 kg in weight were provided by a certified farm. The pigs were acclimated to the laboratory for 2 days. A standard pig diet and water was provided ad libitum. After acclimation, the pigs were randomly assigned into group C [5 pigs, receiving a standard pig diet plus 3 g/kg of Cr2O3, (Merck cat No 1.02483)], group G [5 pigs, receiving diet C plus 8 g/kg of Gln, (Ajimoto)], and group N [5 pigs, receiving diet C plus 10.5 g/kg of N-acetyl-L-glutamine, (Flamma)]. During the experimental phase of the study, each group received 1000 grams of their respective diet per day per animal, fed in 3 portions and water was provided ad libitum. This experimental phase of feeding lasted 5 days.
On the day of experiment, animals were weighed and received the standard diet intake (333 g diet per animal) at 7:00 a.m. Three hours after feeding, animals were weighed, sedated and bled through jugular vein puncture. Animals were quickly opened by abdominal medium sagital incision and the content of the duodenum, medium jejunum (about 2 meters from the ligament of Treitz) and ileum (30 cm from the ileocecal valve) were taken, frozen in liquid nitrogen, lyophylized, and stored at −80° C. until analysis. Samples of liver and kidney were removed, dissected of visible fat and connective tissue, quickly frozen in liquid nitrogen and stored at −80° C. until analysis. […]
Intestinal content was analyzed for glutamine, N-acetyl-L-glutamine and chromium (III) oxide. […]
For analysis of glutamine, the lyophilized intestinal content was treated and analyzed as described in the intestinal loop model above.
Chromium was incorporated into the diets to provide a correction factor to reflect content per kg of original diet. […] The absorbance at 372 nm against demineralized water as a blank was determined. The absorbance readings were converted to mg of Cr2O3 by employing the equation of a standard curve prepared by analyzing 0, 50, 100, 200 and 500 microliters of a standard chromium solution (2.9034 g of K2Cr2O7/L, which is equivalent to 1.5 g/L of Cr2O3).

[3] = test system: small intestine bioptic fragments of patients with untreated celiac disease; assay: Organ culture of small intestine biopsies of untreated celiac patients (TUNEL, CD25); type: cell-based, human; details: 40 ug/ml, 24 hours organ culture
Description: The study was performed in a blind fashion. For this study a organ culture model of celiac, which is a widely used and validated to explore gluten toxicity and mucosal damage in celiac disease was utilized. For the purpose of this project small intestine bioptic fragments of patients with untreated celiac disease were used. Biopsies of untreated celiac patients are ideal to monitor aspects of mucosal damage including induction of epithelial apoptosis and increase of mucosal inflammation.
Twelve adult patients, who were diagnosed as potential untreated celiac patients, were enrolled. Their disease was confirmed by clinical signs, the presence of high titres of anti-tissue transglutaminase and histological analysis of small intestine biopsies.
Organ cultures were performed using standard methods described in Maiuri, L. et al, Gastroenterology 110, 1368-1378. (1996). Briefly a small biopsy fragment (around 1 mm×1 mm) was put on stainless steel mesh and cultured in medium supplemented with the different compounds for a period of 24 hours. The standard positive and negative controls used in studies involving celiac patients and in vitro challenge of biopsies were utilized. The positive control was 1 mg/ml of gliadin peptic-tryptic digest. The negative control was the medium alone. All the compounds to be tested were used at the final concentration of 40 ug/ml. […]
Antigen detection on frozen tissue sections was performed by immunohistochemistry as described in Maiuri, L. et al. Blockage of T-cell costimulation inhibits T-cell action in Celiac disease. […] At least 5 slides for each sample were blindly evaluated. […]
The total number of TUNEL+ enterocytes was referred as percentage of enterocytes. The total number of CD25+ cells in the lamina propria was determined within a standard reference area of 1 mm^2. The counts were performed at a microscope with a calibrated ocular graticule aligned parallel to the muscolaris mucosae and independently analysed by two observers; the results were compared afterwards.

[4] = N-acetyl-L-glutamine diet (55.8 mmole/kg diet), pigs, 3 hours after feeding

Compound: CC(=O)N[C@@H](CCC(N)=O)C(=O)O [N-acetyl-L-glutamine]
- Absorption across the intestinal mucosa [1]: absorbed intact
- N-acetyl-L-glutamine in distal ileum content [2, 4]: 12.8 ± 2.1 mmole/kg original diet
- N-acetyl-L-glutamine in medium jejunum content [2, 4]: 10.3 ± 2.4 mmole/kg original diet
- Absorption between the medial jejunum and the distal ilium ([2]; pig, in vivo): not observed
- Induction of epithelial apoptosis (TUNEL) and sub-epithelial inflammation (CD25) [3]: did not induce any effect
- Trophic effect on the biopsies of untreated celiac patients [3]: clear trophic effect; also recorded: appears to improve the overall condition of the mucosa even compared to medium alone
- Trophic effect on the biopsies of untreated celiac patients ([3]; listed as N-acetyl-glutamine): clear trophic effect

Source: patent US20030134851A1, “Methods and compositions for providing glutamine” (priority 2001, published 2003)
